The series in a line: photoluminescence quantum yield (fraction); solvent given as SMILES.
Setting [1] is: in O=P(c1ccccc1)(c1ccccc1)c1ccccc1Oc1ccccc1P(=O)(c1ccccc1)c1ccccc1.

The values that follow come from the Deep4Chem optical property database.

For the setting “in CC#N”, `COc1ccc(C#Cc2cc3ccccc3oc2=O)cc1` returned a photoluminescence quantum yield of 0.55.
As for `Nc1ncnc2c1c(-c1ccc3ccccc3c1)nn2[C@H]1C[C@H](O)[C@@H](CO)O1`, the photoluminescence quantum yield reads like this: (in C1COCCO1) 0.11; (in CC#N) 0.1; (in CC(C)O) 0.16; (in CCO) 0.14; (in CCOC(C)=O) 0.08; (in CN(C)C=O) 0.13. The photoluminescence quantum yield reads like this: (in CO) 0.14; (in CS(C)=O) 0.15; (in OCC(O)CO) 0.11; (in OCCO) 0.21.
Regarding `Cc1cc(-c2ccc(-c3ccccc3)cc2)nc(-c2ccc(-n3c4ccccc4c4ccccc43)cc2)n1`, the photoluminescence quantum yield runs as follows: (in C1CCOC1) 0.22; (in CN(C)C=O) 0.24; (in Cc1ccccc1) 0.24; (in ClC(Cl)Cl) 0.43.
Under “in Cc1ccccc1”, `COC(=O)/C(C#N)=c1\s/c(=c2/s/c(=C(/C#N)C(=O)OC)c3cc(-c4ccccc4)sc23)c2sc(-c3ccccc3)cc12` returned a photoluminescence quantum yield of 0.366.
In turn, `O=c1oc2ccccc2cc1/C=C/c1ccccc1` came in with a photoluminescence quantum yield (in CC#N) of 0.61.
As to `CCCCCCCCOc1cc(/C=C/c2ccncc2)c(OCCCCCCCC)cc1/C=C/c1ccncc1`, the photoluminescence quantum yield (in ClCCl) worked out at 0.634.
Still for that read-out and setting: the result for `C(=C\c1ncc(-c2ccc(OCc3ccccc3)c(OCc3ccccc3)c2)o1)/c1cccc(N2CCCC2)c1` reads 0.35.
`CN(C)c1ccc(/C=C/c2ccc(-c3nc(C#N)c(C#N)n3C)cc2)cc1`: the photoluminescence quantum yield stood at 0.17 (in C1CCCCC1), 0.002 (in CC#N), 0.002 (in CO) and 0.16 (in ClC(Cl)Cl).
`COc1cc(/C=C/c2nc3ccccc3s2)c(OC)cc1/C=C/c1nc(C)nc(/C=C/c2cc(OC)c(/C=C/c3nc4ccccc4s3)cc2OC)n1` yielded a photoluminescence quantum yield (in C1CCOC1) of 0.54, a photoluminescence quantum yield (in CC#N) of 0.03, a photoluminescence quantum yield (in ClC(Cl)Cl) of 0.5 and a photoluminescence quantum yield (in ClCCl) of 0.46.
For the setting “in ClCCl”, `CCCCCCCCCCCCN1C(=O)c2c(c3ccc4cc(-c5ccccc5)c(OC)cc4c3c3c2ccc2cc(-c4ccccc4)c(OC)cc23)C1=O` yielded a photoluminescence quantum yield of 0.148.
With `COc1ccc(C2=N/C(=C\c3ccc(C#N)cc3)C(=O)N2)cc1OC`, the photoluminescence quantum yield (in C1COCCO1) was found to be 0.189.
Regarding `C[Si]1(C)O[Si](C)(C)c2cc3nc4ccc([N+](=O)[O-])cc4c(-c4ccccc4)c3cc2[Si](C)(C)O1`, the photoluminescence quantum yield (in ClCCl) stood at 0.44.
In the case of `Cc1nc2c(ccc3c2sc(/C=C/C=C/c2ccc(N(C)C)cc2)[n+]3C)s1`, the photoluminescence quantum yield (in CO) came to 0.032 and the photoluminescence quantum yield (in ClC(Cl)Cl) was 0.16.
On to `N#Cc1cccc(C#N)c1-n1c2ccccc2c2cc(-c3ccc4c(c3)c3ccccc3n4-c3c(C#N)cccc3C#N)ccc21`, for which the photoluminescence quantum yield is 0.72 (in Cc1ccccc1) and 0.72 under setting [1].
For the compound `CN(C)c1ccc(/C=C/c2nc3ccccc3s2)cc1`, the photoluminescence quantum yield runs as follows: (in C1CCCCC1) 0.001; (in C1CCOC1) 0.003; (in C1COCCO1) 0.0022; (in CC#N) 0.0066; (in CC(C)O) 0.0048; (in CCCCCC) 0.0018. Besides, the photoluminescence quantum yield (in CCCCCCC) came to 0.0014; the photoluminescence quantum yield (in CCO) came to 0.0045; the photoluminescence quantum yield (in CCOC(C)=O) was found to be 0.0053; the photoluminescence quantum yield (in CCOCC) came to 0.002; the photoluminescence quantum yield (in CN(C)C=O) is 0.007; the photoluminescence quantum yield (in CO) was determined as 0.003. Also, the photoluminescence quantum yield stood at 0.0078 (in CS(C)=O), 0.0012 (in O) and 0.115 (in OCC(O)CO).
Consider `C(=C\c1c2ccccc2cc2ccccc12)/c1ccccc1`, for which the photoluminescence quantum yield by setting is: (in CC1CCCCC1) 0.46; (in CC#N) 0.45.
Consider `F[B-]1(F)n2c(/C=C/c3ccc(C(=C(c4ccccc4)c4ccccc4)c4ccccc4)cc3)ccc2C(c2ccccc2)=C2C=CC(/C=C/c3ccc(C(=C(c4ccccc4)c4ccccc4)c4ccccc4)cc3)=[N+]21`, for which the photoluminescence quantum yield (in C1CCOC1) was 0.42.
Compound `c1ccc2c(-c3ccncc3)c3c(nc2c1)-c1cc2c(cc1CC3)-c1nc3ccccc3c(-c3ccncc3)c1CC2` displayed a photoluminescence quantum yield (in ClC(Cl)Cl) of 0.961.
For the compound `Nc1ccc2c(c1)C(=O)c1ccccc1-2`, the photoluminescence quantum yield by setting is: (in C1CCCCC1) 0.0086; (in c1ccccc1) 0.00099.
`COc1ccc(C2=CC(c3ccc4cc(N(C)C)ccc4c3)=[O+][B-](F)(F)O2)cc1` displayed a photoluminescence quantum yield (in C1CCOC1) of 0.52; a photoluminescence quantum yield (in CC#N) of 0.01; a photoluminescence quantum yield (in CC(C)=O) of 0.12; a photoluminescence quantum yield (in CS(C)=O) of 0.007; a photoluminescence quantum yield (in Cc1ccccc1) of 0.95; a photoluminescence quantum yield (in ClC(Cl)Cl) of 0.99. The compound also came in with a photoluminescence quantum yield (in ClCCl) of 0.62.
Regarding `Cc1c(C(=O)c2ccc3c4cccc5cccc(c6cccc2c63)c54)c2ccc3cccc4c5cccc6ccc1c(c65)c2c34`, the photoluminescence quantum yield (in ClCCl) came out at 0.069.
`Nc1ccc(N2C(=O)c3ccc4c5ccc6c7c(ccc(c8ccc(c3c48)C2=O)c75)C(=O)N(c2ccc(O)cc2)C6=O)cc1` registered a photoluminescence quantum yield (in CN(C)C=O) of 0.95.
Regarding `N#CC1=C(c2ccc(-c3cccs3)s2)CC1`, the photoluminescence quantum yield (in CCO) is 0.18.
In turn, `O=[N+]([O-])c1ccc(O)c(-c2nc3c(c4c2-c2ccccc2CC4)-c2ccccc2CC3)c1` came in with a photoluminescence quantum yield (in ClCCl) of 0.2.
Take `CCOC(=O)/N=c1/oc2c(OC)cccc2cc1C#N`: the photoluminescence quantum yield (in ClCCl) worked out at 0.0034.
Compound `CC1(C)c2ccccc2N(c2ccc(-c3nc([C@]45CC6CC(C[C@@H](C6)C4)C5)nc([C@]45C[C@H]6C[C@@H](C[C@H](C6)C4)C5)n3)cc2)c2ccccc21` displayed a photoluminescence quantum yield (in CC(C)(C)c1ccc(-n2c3ccc([Si](c4ccccc4)(c4ccccc4)c4ccccc4)cc3c3cc([Si](c4ccccc4)(c4ccccc4)c4ccccc4)ccc32)cc1) of 0.83.
Consider `COc1ccc(-c2pc3ccccc3s2)cc1` (stereo not given), for which the photoluminescence quantum yield (in CC#N) came out at 0.054.
With `CCOC(=O)C1=CNC=C(C(=O)OCC)C1c1ccccc1`, the photoluminescence quantum yield is, setting by setting: (in C1CCOC1) 0.7; (in CO) 0.58.
Where the note is “in CC#N”, `C[n+]1cc2ccc3c[n+](C)cc4ccc(c1)c2c34` returned a photoluminescence quantum yield of 0.6.
As for `N#C/C(=C\c1ccc([N+](=O)[O-])cc1)c1nc(-c2ccccc2)cs1`, the photoluminescence quantum yield (in CC#N) was 0.051.
Regarding `COc1ccc(/C=C/C2=CC(/C=C/c3ccc(OC)cc3)=[O+][B-](OC(C)=O)(OC(C)=O)O2)cc1`, the photoluminescence quantum yield by setting is: (in C1CCOC1) 0.95; (in CC#N) 0.85; (in CC(C)=O) 0.88; (in CS(C)=O) 0.83; (in Cc1ccccc1) 0.98; (in ClC(Cl)Cl) 0.91. For the same compound, the photoluminescence quantum yield (in ClCCl) was 0.92.
As for `Cc1cc(-c2ccc(C(C)(C)C)cc2)c2nsnc2c1-c1ccc(C(C)(C)C)cc1`, the photoluminescence quantum yield (in ClCCl) turned out to be 0.14.
As for `Oc1ccccc1/C=N/CC/N=C/c1ccccc1O`, the photoluminescence quantum yield (in CC#N) turned out to be 0.053.
In the case of `O=C1c2ccc3c4c(NC5CCCCC5)cc5c6c(ccc(c7c(NC8CCCCC8)cc(c2c37)C(=O)N1C1CCCCC1)c64)C(=O)N(C1CCCCC1)C5=O`, the photoluminescence quantum yield (in ClC(Cl)Cl) amounted to 0.008.
On to `CC[N+](CC)=c1ccc2cc3c(=O)oc4cc5c(cc4c3oc-2c1)CCCN5C`, for which the photoluminescence quantum yield is, setting by setting: (in ClCCl) 0.265; (in O) 0.009.
`c1ccc2c(c1)[nH]c1ccccc12`: the photoluminescence quantum yield (in CC#N) is 0.62, the photoluminescence quantum yield (in CCCCCC) was determined as 0.53 and the photoluminescence quantum yield (in CCO) stood at 0.44.
`Cc1ccc2oc(-c3cc4cc(C)ccc4oc3=O)cc2c1` registered a photoluminescence quantum yield (in CS(C)=O) of 0.83.
`COc1ccc(-c2csc(/C(C#N)=C/c3ccc(C(F)(F)F)cc3)n2)cc1` yielded a photoluminescence quantum yield (in CC#N) of 0.015.
In the case of `CC1(C)C(/C=C/C=C/C=C/C=C2/N(c3ccc(S(=O)(=O)[O-])cc3)c3ccc(S(=O)(=O)[O-])cc3C2(C)C)=[N+](c2ccc(S(=O)(=O)[O-])cc2)c2ccc(S(=O)(=O)[O-])cc21`, the photoluminescence quantum yield is, setting by setting: (in CO) 0.47; (in O) 0.21.
Consider `CC(C)(C)c1ccc2c(c1)c1cc(C(C)(C)C)ccc1n2-c1ccccc1-c1nc(-c2ccccc2P(=O)(c2ccccc2)c2ccccc2)nc(-c2ccccc2P(=O)(c2ccccc2)c2ccccc2)n1`, for which the photoluminescence quantum yield under setting [1] was 0.38.
In the case of `COc1ccc(-c2c3cc4ccccc4cc3c(C#Cc3ccccc3)c3cc4cc(C)sc4cc23)cc1`, the photoluminescence quantum yield (in ClCCl) was 0.45.
Compound `COc1ccccc1-c1c2ccc(=[N+]3CCCCC3)cc-2oc2cc(N3CCCCC3)ccc12` came in with a photoluminescence quantum yield (in CCO) of 0.36 and a photoluminescence quantum yield (in ClCCl) of 0.92.
The compound `CCC1(CC)c2cc(B(c3c(C)cc(C)cc3C)c3c(C)cc(C)cc3C)ccc2-c2c1c1c(c3c2C(CC)(CC)c2cc(N(c4ccccc4)c4ccccc4)ccc2-3)C(CC)(CC)c2cc(B(c3c(C)cc(C)cc3C)c3c(C)cc(C)cc3C)ccc2-1` gave a photoluminescence quantum yield (in C1CCOC1) of 0.2.
In the case of `N#Cc1nn(-c2c(Cl)cccc2Cl)nc1N1CCCC1`, the photoluminescence quantum yield (in CC#N) was found to be 0.113.
In turn, `N#Cc1cc(C#N)c(-n2c3ccccc3c3cc(-c4cccc5c4c4ccccc4n5-c4cc(-n5c6ccccc6c6ccccc65)c(C#N)cc4C#N)ccc32)cc1-n1c2ccccc2c2ccccc21` returned a photoluminescence quantum yield under setting [1] of 0.66.
As for `O=C1/C(=C2\Sc3ccc(S(=O)(=O)Cl)cc3C2=O)Sc2ccc(S(=O)(=O)Cl)cc21`, the photoluminescence quantum yield was found to be 0.949 (in C1COCCO1) and 0.012 (in CS(C)=O).
Take `c1ccc(-n2c(-c3cccc4ccccc34)nc3c4cccc5ccc6cccc(c6c54)c32)cc1`: the photoluminescence quantum yield (in Cc1ccccc1) stood at 1.
Under “in CC#N”, `Oc1ccccc1/C=N/C1CCCCC1/N=C/c1ccccc1O` (stereo not given) displayed a photoluminescence quantum yield of 0.069.
Where the note is “in CC#N”, `C[C@]12SC(=O)C=C1c1nc(-c3ccc(O)cc3)[nH]c1C1=CC(=O)S[C@@]12C` returned a photoluminescence quantum yield of 0.16.
`Cc1c(C)c2c3ccccc3[nH]c2c2ccccc12` registered a photoluminescence quantum yield (in ClCCl) of 0.156.
